Experimental findings from ChEMBL document CHEMBL3217613, “Novel thalidomide analogues with potent NFB and TNF expression inhibition” (Medchemcomm, 2011) are described below.

Common to all, as to format: cell-based
Data set [1] addresses T1, Nuclear factor NF-kappa-B complex (Homo sapiens) (UniProt Q00653+P19838+Q04206). Put plainly: Inhibition of NFkappaB in human FRT-Jurkat cells expressing GFP assessed as reduction of TNF expression at 10 uM after 24 hrs by flow cytometry relative to control. (In general: In flow cytometry, cells or beads pass a laser one at a time.)
Another data set concerns Jurkat. In words: Cytotoxicity against human FRT-Jurkat cells assessed as reduction of cell viability by measuring cleaved caspase 3 at 10 uM by flow cytometer.
Data set [2] addresses T1, Nuclear factor NF-kappa-B complex (Homo sapiens). In words: Inhibition of NFkappaB in human FRT-Jurkat cells expressing GFP assessed as reduction of TNF expression at 100 uM after 24 hrs by flow cytometry relative to control.
The target is the same in data set [3]. Put plainly: Ratio of thalidomide to compound for inhibition of NFkappaB in human FRT-Jurkat cells expressing GFP assessed as reduction of TNF expression at 10 uM.

T1 sequence (P19838 whole entry, looked up): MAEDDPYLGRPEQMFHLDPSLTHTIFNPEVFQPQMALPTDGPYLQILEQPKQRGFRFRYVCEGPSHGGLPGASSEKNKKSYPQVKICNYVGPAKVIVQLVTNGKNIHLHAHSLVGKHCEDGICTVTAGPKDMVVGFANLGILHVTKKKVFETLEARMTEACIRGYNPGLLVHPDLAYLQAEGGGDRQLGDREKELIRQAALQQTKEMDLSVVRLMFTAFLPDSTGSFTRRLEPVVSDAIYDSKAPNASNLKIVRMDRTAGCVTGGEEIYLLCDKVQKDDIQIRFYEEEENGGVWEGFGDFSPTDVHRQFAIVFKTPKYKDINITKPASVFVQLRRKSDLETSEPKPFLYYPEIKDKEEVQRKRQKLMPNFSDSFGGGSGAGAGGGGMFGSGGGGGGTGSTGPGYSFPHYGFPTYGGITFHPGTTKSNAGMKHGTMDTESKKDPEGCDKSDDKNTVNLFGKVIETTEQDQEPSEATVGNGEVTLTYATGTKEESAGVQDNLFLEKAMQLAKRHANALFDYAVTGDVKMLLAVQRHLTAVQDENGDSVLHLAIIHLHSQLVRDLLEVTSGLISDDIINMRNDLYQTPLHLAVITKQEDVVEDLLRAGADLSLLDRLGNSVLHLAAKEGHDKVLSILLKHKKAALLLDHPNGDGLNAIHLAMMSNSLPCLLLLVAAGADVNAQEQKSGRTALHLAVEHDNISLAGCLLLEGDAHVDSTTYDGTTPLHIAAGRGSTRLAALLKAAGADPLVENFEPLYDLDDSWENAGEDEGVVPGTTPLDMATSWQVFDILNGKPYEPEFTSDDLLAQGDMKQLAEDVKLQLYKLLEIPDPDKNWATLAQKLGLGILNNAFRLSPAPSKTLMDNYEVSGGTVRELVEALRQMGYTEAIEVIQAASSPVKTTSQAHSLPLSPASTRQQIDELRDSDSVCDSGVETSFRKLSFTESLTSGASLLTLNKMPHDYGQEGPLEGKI
T1 sequence (Q00653 whole entry, looked up): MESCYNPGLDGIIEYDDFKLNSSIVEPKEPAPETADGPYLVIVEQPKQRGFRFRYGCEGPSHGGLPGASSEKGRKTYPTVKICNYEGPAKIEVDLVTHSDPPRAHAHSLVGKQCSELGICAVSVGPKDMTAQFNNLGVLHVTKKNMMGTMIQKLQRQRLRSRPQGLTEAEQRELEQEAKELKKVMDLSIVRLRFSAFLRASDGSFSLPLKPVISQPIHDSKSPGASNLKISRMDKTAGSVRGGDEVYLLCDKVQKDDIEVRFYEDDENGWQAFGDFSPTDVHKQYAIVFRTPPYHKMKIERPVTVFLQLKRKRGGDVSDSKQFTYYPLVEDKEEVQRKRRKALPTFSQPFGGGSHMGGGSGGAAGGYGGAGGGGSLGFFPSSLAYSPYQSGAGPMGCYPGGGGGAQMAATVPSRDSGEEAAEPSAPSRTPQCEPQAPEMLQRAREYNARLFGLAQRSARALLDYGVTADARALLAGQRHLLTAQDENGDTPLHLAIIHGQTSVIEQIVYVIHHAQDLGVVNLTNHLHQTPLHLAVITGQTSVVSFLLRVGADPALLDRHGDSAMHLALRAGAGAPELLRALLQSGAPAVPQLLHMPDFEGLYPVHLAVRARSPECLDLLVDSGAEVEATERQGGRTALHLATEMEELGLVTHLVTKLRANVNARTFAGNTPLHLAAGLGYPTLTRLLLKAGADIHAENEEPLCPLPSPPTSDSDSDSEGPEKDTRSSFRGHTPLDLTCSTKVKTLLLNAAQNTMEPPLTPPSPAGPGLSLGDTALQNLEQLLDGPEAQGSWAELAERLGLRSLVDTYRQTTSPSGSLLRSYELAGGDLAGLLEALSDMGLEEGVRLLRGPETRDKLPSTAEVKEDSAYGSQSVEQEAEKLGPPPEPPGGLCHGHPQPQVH
T1 sequence (Q04206 whole entry, looked up): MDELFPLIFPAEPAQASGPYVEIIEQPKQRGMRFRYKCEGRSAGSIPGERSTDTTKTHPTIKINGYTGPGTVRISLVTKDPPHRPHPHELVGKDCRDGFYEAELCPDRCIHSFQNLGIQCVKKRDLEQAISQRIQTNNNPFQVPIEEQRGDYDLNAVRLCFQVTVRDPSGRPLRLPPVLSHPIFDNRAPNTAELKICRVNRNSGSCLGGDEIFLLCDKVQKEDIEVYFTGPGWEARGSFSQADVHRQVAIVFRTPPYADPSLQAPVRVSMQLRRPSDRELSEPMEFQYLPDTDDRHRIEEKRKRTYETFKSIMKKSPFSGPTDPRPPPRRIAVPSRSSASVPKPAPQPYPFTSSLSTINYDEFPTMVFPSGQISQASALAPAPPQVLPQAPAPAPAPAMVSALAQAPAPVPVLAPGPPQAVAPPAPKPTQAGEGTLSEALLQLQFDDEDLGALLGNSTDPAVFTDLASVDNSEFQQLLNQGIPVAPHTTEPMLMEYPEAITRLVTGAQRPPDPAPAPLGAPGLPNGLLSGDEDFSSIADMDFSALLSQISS

For `CCCCCc1ccc(Nc2cccc3c2C(=O)N(C2CCC(=O)NC2=O)C3=O)cc1` (configuration not stated), the inhibition – broadly, the drop in the measured response relative to a control, in per cent – in data set [1] is 23%. Moreover, the Activity in the data set on Jurkat turned out to be 89%.

On to `CC(=O)c1ccc(Nc2cccc3c2C(=O)N(C2CCC(=O)NC2=O)C3=O)cc1` (configuration not stated), for which, in data set [1], the inhibition stood at 2%. For the same compound, in the data set on Jurkat, the Activity is reported as 89%.

Regarding `CCOC(=O)c1ccc(Nc2cccc3c2C(=O)N(C2CCC(=O)NC2=O)C3=O)cc1` (configuration not stated), the inhibition in data set [1] turned out to be 10%. Besides, the Activity with Jurkat is given as 89%.

For the compound `COc1ccc(Nc2cccc3c2C(=O)N(C2CCC(=O)NC2=O)C3=O)cc1` (configuration not stated), the inhibition in data set [1] came out at 13%. In the data set on Jurkat, the Activity is recorded as 89%.

Take `CC(C)c1ccc(Nc2ccc3c(c2)C(=O)N(C2CCC(=O)NC2=O)C3=O)cc1` (configuration not stated): in data set [1], the inhibition came to 11%.

Turning to `Cc1ccc(Nc2cccc3c2C(=O)N(C2CCC(=O)NC2=O)C3=O)cc1` (configuration not stated), the inhibition in data set [1] was found to be 9%. In addition, the Activity with Jurkat worked out at 89%.

`CC(=O)c1ccc(Nc2ccc3c(c2)C(=O)N(C2CCC(=O)NC2=O)C3=O)cc1` (configuration not stated): the inhibition in data set [1] was -2%.

For `COc1ccc(Nc2ccc3c(c2)C(=O)N(C2CCC(=O)NC2=O)C3=O)cc1` (configuration not stated), in data set [1], the inhibition was found to be 29%.

With `CCCc1ccc(Nc2ccc3c(c2)C(=O)N(C2CCC(=O)NC2=O)C3=O)cc1` (configuration not stated), the inhibition in data set [1] was 10%.

In the case of `O=C1CCC(N2C(=O)c3cccc(Nc4ccccc4)c3C2=O)C(=O)N1` (configuration not stated), the inhibition in data set [2] was 16%; in data set [1], 4%. Besides, the Activity in the data set with Jurkat came to 89%.

Regarding `CN(c1ccccc1)c1ccc2c(c1)C(=O)N(C1CCC(=O)NC1=O)C2=O` (configuration not stated), the inhibition in data set [1] was -2%.

With `Cc1ccccc1Nc1ccc2c(c1)C(=O)N(C1CCC(=O)NC1=O)C2=O` (configuration not stated), in data set [1], the inhibition turned out to be 2%.

As for `O=C1CCC(N2C(=O)c3cccc(Nc4ccccn4)c3C2=O)C(=O)N1` (configuration not stated), the inhibition in data set [1] worked out at 1%. Moreover, in the data set on Jurkat, the Activity came out at 89%.

For `O=C1CCC(N2C(=O)c3ccccc3C2=O)C(=O)N1` (racemic), the inhibition in data set [2] is 4%; in data set [1], 2%.

On to `Nc1cccc2c1CN(C1CCC(=O)NC1=O)C2=O` (configuration not stated), for which the inhibition was found to be 6% in data set [2] and 4% in data set [1].

With `O=C1CCC(N2C(=O)c3ccc(Nc4ccccn4)cc3C2=O)C(=O)N1` (configuration not stated), the inhibition in data set [1] came to 9%.

As to `Cc1ccccc1Nc1cccc2c1C(=O)N(C1CCC(=O)NC1=O)C2=O` (configuration not stated), the inhibition in data set [1] was 7%. For the same compound, the Activity in the data set with Jurkat is on record as 89%.

As for `CC(C)(C)c1ccc(Nc2cccc3c2C(=O)N(C2CCC(=O)NC2=O)C3=O)cc1` (configuration not stated), the inhibition in data set [1] stood at 36%. Besides, the Activity in the data set with Jurkat was 89%.

Take `CCOC(=O)c1ccc(Nc2ccc3c(c2)C(=O)N(C2CCC(=O)NC2=O)C3=O)cc1` (configuration not stated): in data set [1], the inhibition came to 5%.

Turning to `Cc1ccc(Nc2ccc3c(c2)C(=O)N(C2CCC(=O)NC2=O)C3=O)cc1` (configuration not stated), in data set [1], the inhibition amounted to 5%.

On to `CC(C)c1ccc(Nc2cccc3c2C(=O)N(C2CCC(=O)NC2=O)C3=O)cc1` (configuration not stated), for which the inhibition in data set [1] turned out to be 19%. The Activity with Jurkat is listed as 89%.

Regarding `O=C1CCC(N2C(=O)c3ccc(Nc4ccc(O)cc4)cc3C2=O)C(=O)N1` (configuration not stated), the inhibition in data set [1] is 4%.

Take `O=C1CCC(N2C(=O)c3cccc(Nc4ccc(O)cc4)c3C2=O)C(=O)N1` (configuration not stated): in data set [1], the inhibition worked out at 4%. For the same compound, the Activity in the data set with Jurkat came to 89%.

With `O=C1CCC(N2C(=O)c3ccc(Nc4ccccc4)cc3C2=O)C(=O)N1` (configuration not stated), the inhibition in data set [2] came to 17%; in data set [1] it was 6%. For the same compound, the Ratio in data set [3] was 2.

On to `CCCCCc1ccc(Nc2ccc3c(c2)C(=O)N(C2CCC(=O)NC2=O)C3=O)cc1` (configuration not stated), for which the inhibition in data set [1] turned out to be 12%.

For the compound `CCCc1ccc(Nc2cccc3c2C(=O)N(C2CCC(=O)NC2=O)C3=O)cc1` (configuration not stated), in data set [1], the inhibition came to 23%. The Activity in the data set with Jurkat came to 89%.

With `CC(C)(C)c1ccc(Nc2ccc3c(c2)C(=O)N(C2CCC(=O)NC2=O)C3=O)cc1` (configuration not stated), in data set [1], the inhibition was 17%.

With `CCc1ccc(Nc2ccc3c(c2)C(=O)N(C2CCC(=O)NC2=O)C3=O)cc1` (configuration not stated), the inhibition in data set [1] was determined as 5%.

As to `CCc1ccc(Nc2cccc3c2C(=O)N(C2CCC(=O)NC2=O)C3=O)cc1` (configuration not stated), the inhibition in data set [1] is 17%. Moreover, in the data set on Jurkat, the Activity is given as 89%.
